# According to patent US7563918B2, “Solid and crystalline ibandronate sodium and processes for preparation thereof” (Teva Pharmaceutical Industries Ltd., priority 2004, dated 2009):
# Test: Storage stability of crystalline form (polymorphic transformation)
# Assay type: physicochemical
# Settings: stored under 100% relative humidity at 40° C. for 3 days
# Excerpt: In another embodiment, the present invention provides a solid crystalline form of ibandronate sodium denominated Form QQ. Form QQ is characterized by x-ray powder diffraction reflections at 6.2, 25.9, 26.7, 31.1, and 37.2±0.2 degrees two-theta. Form QQ can be further characterized by x-ray powder diffraction reflections at 16.9, 17.3, 21.5, 24.7, and 29.2±0.2 degrees two-theta. […] Form QQ also has a particle size distribution of not more than 100μpreferably not more than 60μ. […] can be a in the range of a monohydrate to a trihydrate. Form QQ can be further characterized by TGA, showing a weight loss of about 5 to about 12%.
smiles,measurement,value
"CCCCCN(C)CCC(O)(P(=O)([O-])O)P(=O)(O)O.[Na+] [Form QQ, (1-hydroxy-3-(N-methyl-N-pentylamino)propylidene) bisphosphonic acid monosodium salt]",transformation into other polymorphic forms when stored,≤ 5%
